{"source": "patent US8168650B2", "about": "“Therapeutic uses of bicyclic ligands of sigma 2 receptor” (priority 2006, dated 2012)", "key": {"[1]": {"test_system": "caspase-3/7", "assay": "Caspase-3/7 whole cell assay in MDA-MB-435 cells", "assay_type": "cell-based, human", "conditions": "MDA-MB-435, 24 h", "protocol": "FIG. 8 illustrates activation of caspase-3/7 in EMT-6 cells treated with the sigma-2 selective ligands, WC-II-26, SV119, or RHM-I-138. EMT6 cells were treated for 24 h with concentrations of 40 μM. MDA-MB-435 cells were treated with varying concentrations of sigma-2 selective ligands for 24 h. The highest level of caspase-3/7 activity was detected after 24 h in the presence of 80 μM SV119, 80 μM WC-II-26, and 50 μM RHM-I-138. The data are the mean±1 SEM of three independent experiments. p<0.05; * compared to the control.\n(§1) Detection of intracellular cellular caspase-3/7 activity. The activation of endogenous caspase-3/7 by the sigma ligands was measured using the CellProbe HT caspase-3/7 whole cell assay (Beckman Coulter, Fullerton, Calif.). The cell permeable, nonfluorescent bisamide substrate, Z-DEVD-R110, was added to the intact cells to detect apoptosis. Upon specific cleavage by caspase-3/7, Z-DEVD-R110 is converted to a fluorescent compound, and the fluorescent signal can be measured as follows. After adding the substrate, Z-DEVD-R110, to the cells treated with a sigma ligand, the plate was incubated for an additional 1.5-2 hour, and the resulting fluorescence measured using a Victor 3 microplate fluorometer at excitation and emission wavelengths of 485 nm and 535 nm, respectively."}, "[2]": {"biological_target": "T1, σ1 receptor (Cavia porcellus, UniProt Q60492)", "T1 sequence (Q60492 whole entry)": "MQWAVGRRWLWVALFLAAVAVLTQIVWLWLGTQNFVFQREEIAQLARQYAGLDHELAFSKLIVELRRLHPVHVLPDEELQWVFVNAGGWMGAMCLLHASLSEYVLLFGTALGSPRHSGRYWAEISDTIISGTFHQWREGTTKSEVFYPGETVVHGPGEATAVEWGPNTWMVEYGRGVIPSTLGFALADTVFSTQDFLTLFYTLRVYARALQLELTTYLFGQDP", "method": "(§2) In vitro binding studies were conducted in order to determine the affinity of the target compounds at σ1 and σ2 receptors.\n(§3) In this example, test compounds were dissolved in N,N-dimethylformamide (DMF), dimethylsulfoxide (DMSO) or ethanol and then diluted in 50 mM Tris-HCl, pH 7.4 buffer containing 150 mM NaCl and 100 mM EDTA. Membrane homogenates were made from guinea pig brain for σ1 binding assays and rat liver for σ2 binding assays. Membrane homogenates were diluted with 50 mM Tris-HCl buffer, pH 8.0, and incubated at 25° C. in a total volume of 150 μL in 96-well plates with the radioligand and test compounds with concentrations ranging from 0.1 nM to 10 μM. After incubation was completed, the reactions were terminated by the addition of 150 μL of ice-cold wash buffer (10 mM Tris-HCl, 150 mM NaCl, pH 7.4) using a 96-channel transfer pipette (Fisher Scientific, Pittsburgh, Pa.), and the samples harvested and filtered rapidly through 96-well fiberglass filter plate (Millipore, Billerica, Mass.) that had been presoaked with 100 μL of 50 mM Tris-HCl buffer, pH 8.0, for 1 h. Each filter was washed three times with 200 μL of ice cold wash buffer.\n(§4) Ki values were calculated using the method of Cheng and Prusoff20 and represent mean values±SEM."}, "[3]": {"test_system": "caspase-3/7", "assay": "Caspase-3/7 whole cell assay in EMT-6 cells", "assay_type": "cell-based, mouse", "conditions": "EMT-6, 40 μM, 24 h", "protocol": "as §1\nIn these experiments, to assess whether caspase-like activity was involved in the cytotoxic pathway, a caspase-3/7 whole cell assay was performed. This assay has advantages over other cell-based assays which use a cell lysate to monitor the activity of caspase-3/7. By not disrupting the cells, the whole cell assay tends to minimize the background noise contributed by non-specific protease activity in the cell lysates. Consequently, a greater specificity for the caspase-3/7 activity can be achieved with the whole cell assay. […] The accumulation of the fluorescent product was quantified using a fluorescence microplate reader. […]"}, "[4]": {"test_system": "pancreatic cancer cell lines (Panc-02, CFPAC-1, AsPC-1, Panc-1)", "assay": "Apoptosis in pancreas cancer cell lines (TUNEL / cleaved caspase-3, flow cytometry)", "assay_type": "cell-based, mouse, human", "conditions": "24 hours incubation", "protocol": "Tumor cells were seeded at a density of approximately 0.2×10^6 cells per well in 12-well plates in 1.0 ml culture medium. Cells were split and pre-incubated at 37° C. in humidified 5% CO2 for more than 24 hours (Panc-02) and 48 hours (CFPAC-1, AsPC-1, Panc-1) to insure uniform growth conditions. Compounds were dissolved in DMSO and added to the culture medium at the concentrations indicated. The final concentration of DMSO in the cell culture medium was less than 1%. The cells were then incubated for 24 hours at 37° C. in humidified 5% CO2. The extent of apoptosis was subsequently measured as previously reported (Guelen, L., et al., Oncogene 2004, 23: 1153-1165). Briefly, staining was performed on trypsin-EDTA treated cultures that had been fixed with 1% paraformaldehyde and 90% methanol. Cell pellets were resuspended in TUNEL reagent (APO-BRDU kit, San Diego, Calif.) or cleaved caspase-3 antibody (Cell Signaling Technology, Inc. Boston, Mass.) and incubated overnight at room temperature (TUNEL) or 4° C. (cleaved caspase-3). After washing, cells were resuspended in fluorescein antibody or 7-AAD buffer and incubated for 1 hour at room temperature. Cell-associated fluorescence was determined using a flow cytometry (FACScan, BD Biosciences) and analyzed with CellQuest software (BD Biosciences).\nAt the highest dose tested (10 μM), all sigma-2 receptor ligands induced an additional 10-20% of the cells to undergo apoptosis (FIG. 15A). […] The pan-caspase inhibitor (Z-VAD-fmk) and caspase-3/7 inhibitor (DEVD-CHO) prevented sigma-2 receptor ligand-induced apoptosis in panc-02 cells, while the caspase-1 inhibitor (YVAD-CHO) had no effect (FIG. 15B)."}, "[5]": {"test_system": "Panc-02 tumors", "assay": "Antitumor effect in vivo: tumor growth and survival, Panc-02 model", "parameters": "species or system C57BL/6 mice", "conditions": "listed as WC26", "protocol": "Mean tumor diameter was measured three times each week."}, "[6]": {"assay": "Toxicity in treated mice (serum biochemistry, immunohistochemistry)", "method": "Female C57BL/6 mice (8-12 weeks old) were purchased from the NCI and acclimated for at least 1 week before tumor implantation. […] For the survival study, mice (N=10 per group) were treated with sigma-2 receptor ligand at the stated concentration or vehicle control once a day for 5 days."}, "[7]": {"test_system": "EMT-6 cells", "assay": "TUNEL assay, enhancement of Dox-induced apoptosis in EMT-6 cells", "assay_type": "cell-based, mouse", "protocol": "In these experiments, a TUNEL assay was used to detect apoptotic cells with damaged DNA strands. […] Furthermore, EMT-6 cells treated with Dox at 30 nM yielded only 10% TUNEL-positive cells. However, when EMT-6 cells were treated with 2 μM WC-II-26 plus 30 nM Dox, the percentage of TUNEL-positive cells rose to 43.3%."}, "[8]": {"test_system": "EMT-6 cells", "assay": "Colony formation assay on Doxorubicin-treated EMT-6 cells", "assay_type": "cell-based, mouse", "protocol": "This Example illustrates colony formation assay on Doxorubicin (“Dox”)-treated EMT-6 cells in the presence or absence of 2 μM WC-II-26. The structures of the sigma ligands used in this and subsequent examples are illustrated in FIG. 5 and FIG. 6."}, "[9]": {"biological_target": "T1, σ1 receptor", "assay": "biochemical", "method": "as §2, §3, §4"}, "[10]": {"test_system": "Panc-02 tumor allografts", "assay": "In vivo apoptosis (FACS, active caspase-3) in tumor and organs of Panc-02 bearing mice", "method": "Female C57BL/6 mice (8-12 weeks old) were purchased from the NCI and acclimated for at least 1 week before tumor implantation. All mice were injected in the right flank with 200 μl of a single cell suspension containing 1.0×10^6 Panc-02 cells. Treatment of the tumors started 2 weeks after tumor implantation when their size reached a mean diameter of 5-8 mm. To evaluate the effect of sigma-2 receptor ligands both systemically and on tumor in vivo, several mice were sacrificed after a single treatment. Necropsy was performed and single cell suspensions were prepared from retrieved organs. The extent of apoptosis in these cells was measured by FACS (described above)."}}, "note": "“Also recorded” adds a separate entry of the source. Like-named read-outs stand apart in the source and are kept apart here.", "data": [{"compound": "O[C@@H](CN1C2CCC1CC(c1ccccc1)C2)c1cccc(Br)c1", "note": "(stereo partly shown) [RHM-I-138]", "values": [{"measurement": "concentration at which the highest level of caspase-3/7 activity was detected", "setting": "[1]", "value": 50, "unit": "µM"}, {"measurement": "Ki", "setting": "[2]", "value": 0.544, "unit": "µM"}, {"measurement": "increase of endogenous caspase-3/7 activity compared with untreated cells", "setting": "[3]", "value": 2, "unit": "fold"}]}, {"compound": "COc1ccc(C)cc1NC(=O)OC1CC2CCCC(C1)N2CCCCCCN", "note": "(stereo not shown) [SV119]", "values": [{"measurement": "concentration at which the highest level of caspase-3/7 activity was detected", "setting": "[1]", "value": 80, "unit": "µM"}, {"measurement": "apoptosis in all pancreas cancer cell lines tested", "setting": "[4]", "value": "dose-dependent apoptosis"}, {"measurement": "increase of endogenous caspase-3/7 activity compared with untreated cells", "setting": "[3]", "value": 2, "unit": "fold"}]}, {"compound": "COc1ccc(C)cc1NC(=O)O[C@H]1C[C@H]2CCC[C@@H](C1)N2Cc1ccc(N(C)C)cc1", "note": "[WC-II-26]", "values": [{"measurement": "concentration at which the highest level of caspase-3/7 activity was detected", "setting": "[1]", "value": 80, "unit": "µM"}, {"measurement": "tumor growth / tumor size versus vehicle control", "setting": "[5]; 50 or 100 mg/kg (1 or 2 mg/day) intraperitoneal once a day for five days", "value": "tumors shrank; also recorded: smaller tumors"}, {"measurement": "survival (tumor diameter 15 mm or ulceration as endpoint)", "setting": "[5]; 50 or 100 mg/kg (1 or 2 mg/day) once a day for five days, p=0.002", "value": "significant survival benefit; also recorded: compared favorably"}, {"measurement": "acute, systemic toxicity based on blood chemistry parameters", "setting": "[6]; 50 or 100 mg/kg once a day for five days", "value": "no acute, systemic toxicity"}, {"measurement": "acute toxicity on immunohistochemical evaluation of normal tissues", "setting": "[6]; after WC26 treatment (data not shown)", "value": "no acute toxicity"}, {"measurement": "toxicity in serum biochemistry data", "setting": "[6]; after systemic administration", "value": "no apparent toxicity"}, {"measurement": "effect on serum biochemistry at the highest dose tested", "setting": "[6]; values still within reference ranges", "value": "elevated AST and depressed creatinine and glucose levels"}, {"measurement": "TUNEL-positive cells", "setting": "[7]; EMT-6, 2 μM WC-II-26 alone", "value": "less than 5%"}, {"measurement": "TUNEL-positive cells", "setting": "[7]; EMT-6, 2 μM WC-II-26 plus 30 nM Dox", "value": 43.3, "unit": "%"}, {"measurement": "number of colonies formed compared to control cells", "setting": "[8]; EMT-6, 2 μM WC-II-26 alone", "value": "not changed significantly"}, {"measurement": "ability of survival reduced (% of control)", "setting": "[8]; EMT-6, 2 μM WC-II-26 combined with 10 nM Dox", "value": "38 % of control"}, {"measurement": "ability of survival reduced (% of control)", "setting": "[8]; EMT-6, 2 μM WC-II-26 combined with 20 nM Dox", "value": "77 % of control"}, {"measurement": "ability of survival reduced (% of control)", "setting": "[8]; EMT-6, 2 μM WC-II-26 combined with 30 nM Dox", "value": "86 % of control"}, {"measurement": "ability of survival reduced (% of control)", "setting": "[8]; EMT-6, 2 μM WC-II-26 combined with 40 nM Dox", "value": "92 % of control"}, {"measurement": "apoptosis in all pancreas cancer cell lines tested", "setting": "[4]", "value": "dose-dependent apoptosis"}, {"measurement": "Ki", "setting": "[9]", "value": 5.57, "unit": "µM"}, {"measurement": "tumor cells active caspase-3 positive", "setting": "[10]; single 2 mg dose, Panc-02 tumor allografts, p<0.0001", "value": "up to 50%"}, {"measurement": "apoptosis in pancreas and livers", "setting": "[10]; systemic administration", "value": "< 10", "unit": "%"}, {"measurement": "apoptosis in brain, lung, kidney or spleen (active caspase-3, FACS)", "setting": "[10]; systemic administration, any of the concentrations tested", "value": "did not induce apoptosis"}]}]}
